Test results: patent US20240294551A1 (AMGEN INC., priority 2022, published 2024)

Key:
[1] = molecular target: His-tagged KRAS G12D protein (Homo sapiens (Human), UniProt P01116, G12D); experiment: KRAS G12D TR-FRET Assay; assay type: binding; settings: read-out: KRAS G12D Binding IC50
Method in brief: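 Each incubation ran at room temperature: enzyme with compound for 30 minutes, peptide for one hour, and detection reagents (0.4 nM europium anti-6×His, 5 nM streptavidin-d2) for one hour more. Protein and peptide stocks were each diluted to 20 nM before addition.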

[2] = molecular target: GDP-bound KRAS protein (aa 1-169), containing both G12D and C118A amino acid substitutions (Homo sapiens (Human), UniProt P01116, C118A/G12D); experiment: KRAS G12D Coupled Nucleotide Exchange Assay; assay type: biochemical; settings: read-out: KRAS G12D Coupled Exchange IC50
[3] = tested on: Phosphorylation of ERK1/2 in AsPC-1 cells; experiment: Phospho-ERK1/2 MSD Assay; assay type: cell-based, human; settings: Homo sapiens, ASPC1, 2 h, read-out: 2 h p-ERK (AsPC-1 cells), IC50
Method in brief: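 Read-out: MSD electrochemiluminescent detection of phosphorylated ERK1/2 in whole-cell lysates, fitted to a 4-parameter logistic curve for IC50. Prior to lysis, AsPC-1 cells (25,000 per well) received a 2 h compound dose-response at 37 °C.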

AsPC-1 cells = experiment: AsPC-1 CTG Assay (CellTiter-Glo cell viability); assay type: cell-based, human; settings: Homo sapiens, ASPC1, 72 h, AsPC-1, 72 h; first value of the cell; read-out: G12D/C/V Cell Proliferation CTG (72 h) AsPC-1
Method in brief: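 IC50 values derive from 4-parameter logistic fits of CellTiter-Glo luminescence, expressed relative to DMSO. Compound dilution series were applied to overnight-seeded AsPC-1 or SW620 cells (RPMI 1640, 10% FBS) for 72 h at 37 °C, 5% CO2.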

SW620 cells = experiment: SW620 CTG Assay (CellTiter-Glo cell viability); assay type: cell-based, human; settings: Homo sapiens, SW-620; SW620, 72 h; third value of the cell; read-out: G12D/C/V Cell Proliferation CTG (72 h) SW620
Experimental: AsPC-1 and SW620 CTG Assay Protocols
AsPC-1 (human pancreatic adenocarcinoma; ATCC CRL-1682) or SW620 (human colon adenocarcinoma; ATCC CCL-227) cells were cultured in RPMI 1640 medium containing 10% fetal bovine serum and 1× penicillin/streptomycin/L-glutamine. Cells were seeded in 384-well plates at a density of 3.33E+04 cells/mL and incubated at 37° C., 5% CO2, overnight. Serially-diluted compound or DMSO was added to the cells, and plates were incubated at 37° C., 5% CO2 for 72 h. Cell viability was measured using a CellTiter-Glo® Luminescent Cell Viability Assay kit (Promega) according to the manufacturer's protocol. The luminescence signal of treated samples was normalized to DMSO control, and data were analyzed using a 4-parameter logistic model to calculate IC50 values.

MIA PaCa-2 cells = experiment: MIA PaCa-2 CTG Assay (CellTiter-Glo cell viability); assay type: cell-based, human; settings: Homo sapiens; Mia PaCa-2, 72 h; second value of the cell; read-out: G12D/C/V Cell Proliferation CTG (72 h) Mia PaCa-2
Method in brief: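 IC50 values come from a 4-parameter logistic fit of CellTiter-Glo luminescence, normalized to DMSO control, after 72 h compound exposure at 37° C, 5% CO2. Cells grew in RPMI 1640 plus 10% FBS and were seeded at 1.67E+04 cells/mL one night before dosing.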

Chain of His-tagged KRAS G12D protein (P01116 other isoform, or with tags, fused parts or gaps G12D): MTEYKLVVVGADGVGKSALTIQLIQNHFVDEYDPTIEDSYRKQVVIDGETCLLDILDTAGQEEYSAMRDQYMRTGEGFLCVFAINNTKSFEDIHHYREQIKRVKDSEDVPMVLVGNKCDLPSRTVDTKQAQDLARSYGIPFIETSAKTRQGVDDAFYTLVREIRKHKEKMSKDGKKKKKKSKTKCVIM
Chain of GDP-bound KRAS protein (aa 1-169), containing both G12D and C118A amino acid substitutions (P01116 other isoform, or with tags, fused parts or gaps G12D/C118A): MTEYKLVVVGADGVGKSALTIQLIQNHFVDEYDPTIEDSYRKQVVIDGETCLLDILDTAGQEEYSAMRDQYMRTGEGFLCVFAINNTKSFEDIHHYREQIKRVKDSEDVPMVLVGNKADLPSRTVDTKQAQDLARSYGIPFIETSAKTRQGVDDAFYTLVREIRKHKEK

Row | SMILES | IC50 [1] [nM] | IC50 [2] [nM] | IC50 [3] [nM] | IC50 (AsPC-1 cells) [nM] | IC50 (SW620 cells) [nM] | IC50 (MIA PaCa-2 cells) [nM]
1 | Cc1cc2[nH]ncc2c2c1CCCCOC[C@@H]1CCCN(C1)c1nc(OC[C@@]34CCCN3C[C@H](F)C4)nc3c(F)c-2ncc13 [Example 129, (17R)-30-Fluoro-24-(((2R,7aS)-2-fluorotetrahydro-1H-pyrrolo[1,2-a]pyrrol-7a(5H)-yl)methoxy)-9-methyl-15-oxa-5,6,21,23,25,29-hexaazahexacyclo[24.3.1.1˜17,21˜.0˜2,10˜.0˜3,7˜.0˜22,27˜]hentriaconta-1(30),2,4,7,9,22,24,26,28-nonaene bis(2,2,2-trifluoroacetate)] | 4 | 2 | 20 | 170 | 67.4 | 90
2 | Cc1cc2[nH]ncc2c2c1CCCCC(=O)O[C@@H]1CCCN(C1)c1nc(OC[C@@]34CCCN3C[C@H](F)C4)nc3c(F)c-2ncc13 [Example 31, (17R)-30-Fluoro-24-(((2R,7aS)-2-fluorotetrahydro-1H-pyrrolo[1,2-a]pyrrol-7a(5H)-yl)methoxy)-9-methyl-16-oxa-5,6,21,23,25,29-hexaazahexacyclo[24.3.1.1˜17,21.0˜2,10˜.0˜3,7˜.0˜22,27˜]hentriaconta-1(30),2,4,7,9,22,24,26,28-nonaen-15-one bis(2,2,2-trifluoroacetate)] |  |  | 33 |  | 133 | 170
3 | Fc1c2ncc3c(nc(OC[C@@]45CCCN4C[C@H](F)C5)nc13)N1CCCC(C1)c1cnn(n1)CCCc1c(Cl)cc3[nH]ncc3c1-2 (stereo partly shown) [Example 148] | 7 | 5 | 42 | 460 | 165 | 
4 | C[C@@]12CCCN(C1)c1nc(OC[C@@]34CCCN3C[C@H](F)C4)nc3c(F)c(ncc13)-c1cccc3ccc(F)c(c13)CC[C@H](F)C(=O)N2 [Example 12, (15R,18S)-18,22,31-trifluoro-8-(((2R,7aS)-2-fluorotetrahydro-1H-pyrrolo[1,2-a]pyrrol-7a(5H)-yl)methoxy)-15-methyl-3,7,9,11,16-pentaazahexacyclo[19.7.1.1˜2,6˜.1˜11,15˜.0˜5,10˜.0˜25,29˜]hentriaconta-1(28),2(31),3,5,7,9,21,23,25(29),26-decaen-17-one] | 6 | 3 | 52 | 490 | 427 | 
5 | CN(C)CC1(COc2nc3c4cnc(c(F)c4n2)-c2c(c(Cl)cc4[nH]ncc24)CCCOC(=O)O[C@@H]2COCCN3C2)CC1 [Example 195, (26S)-18-chloro-4-((1-((dimethylamino)methyl)cyclopropyl)methoxy)-32-fluoro-23,25,28-trioxa-1,3,5,9,14,15-hexaazahexacyclo[24.4.1.1~6,10~.0~2,7~.0~11,19~.0~12,16~]dotriaconta-2,4,6,8,10(32),11,13,16,18-nonaen-24-one] |  |  | 6 | 67 | 50 | 31
6 | Cc1cc2[nH]ncc2c2c1CCOC(=O)O[C@H]1C[C@]3(CCCN(C3)c3nc(OC[C@@H]4CCCN4C)nc4c(F)c-2ncc34)C1 (single isomer, unassigned) [Example 326] | 4 | 2 | 16.8 | 114 | 66 | 
7 | Fc1c2ncc3c(nc(OC[C@@]45CCCN4C[C@H](F)C5)nc13)N1CCOC[C@H](C1)OC(=S)OCCCc1c(Cl)cc3[nH]ncc3c1-2 [Example 199, (26S)-18-chloro-32-fluoro-4-(((2R,7aS)-2-fluorotetrahydro-1H-pyrrolo[1,2-a]pyrrol-7a(5H)-yl)methoxy)-23,25,28-trioxa-1,3,5,9,14,15-hexaazahexacyclo[24.4.1.1~6,10~.0~2,7~.0~11,19~.0~12,16~]dotriaconta-2,4,6,8,10(32),11,13,16,18-nonaene-24-thione] | 4 | 3 | 15.7 | 46 | 22 | 
8 | Cc1cc2[nH]ncc2c2c1[C@H]1C[C@H]1COCC[C@@H]1CCCN(C1)c1nc(OC[C@@]34CCCN3C[C@H](F)C4)nc3c(F)c-2ncc13 [Example 153, (11S,13R,18S)-31-fluoro-25-(((2R,7aS)-2-fluorotetrahydro-1H-pyrrolo[1,2-a]pyrrol-7a(5H)-yl)methoxy)-9-methyl-15-oxa-5,6,22,24,26,30-hexaazaheptacyclo[25.3.1.1~18,22~.0~2,10~.0~3,7~.0~11,13~.0~23,28~]dotriaconta-1(31),2,4,7,9,23,25,27,29-nonaene] | 3 | 3 | 9 | 210 | 32.5 | 
9 | Fc1c2ncc3c(nc(OC[C@@]45CCCN4C[C@H](F)C5)nc13)N1CCC[C@H](C1)Cn1ncc(n1)CCc1c(Cl)cc3[nH]ncc3c1-2 [Example 156, (18R)-9-chloro-31-fluoro-25-(((2R,7aS)-2-fluorotetrahydro-1H-pyrrolo[1,2-a]pyrrol-7a(5H)-yl)methoxy)-5,6,15,16,22,24,26,30,33-nonaazaheptacyclo[25.3.1.1~13,16~.1~18,22~.0~2,10~.0~3,7~.0~23,28~]tritriaconta-1(31),2,4,7,9,13(33),14,23,25,27,29-undecaene] | 12 | 3 | 110 | 720 | 367 | 
10 | C[C@@]12CCCN(C1)c1nc(OC[C@@]34CCCN3C[C@H](F)C4)nc3c(F)c(ncc13)-c1c(c(Cl)cc3[nH]ncc13)CCCOC(=O)O2 [Example 327, (17R)-9-chloro-30-fluoro-24-(((2R,7aS)-2-fluorotetrahydro-1H-pyrrolo[1,2-a]pyrrol-7a(5H)-yl)methoxy)-17-methyl-14,16-dioxa-5,6,21,23,25,29-hexaazahexacyclo[24.3.1.1~17,21~.0~2,10~.0~3,7~.0~22,27~]hentriaconta-1(30),2,4,7,9,22,24,26,28-nonaen-15-one] | 4 | 2 | 8.4 | 13 | 24 | 
11 | Fc1c2ncc3c(nc(OC[C@@]45CCCN4C[C@H](F)C5)nc13)N1CCOC[C@@H](COCCCCc3c(Cl)cc4[nH]ncc4c3-2)C1 (single isomer, unassigned) [Example 137] | 4 | 2 | 47 | 420 | 96.7 | 
12 | O=C1OCCCc2c(Cl)cc3[nH]ncc3c2-c2ncc3c(nc(OC[C@@]45CCCN4C[C@H](F)C5)nc3c2F)N2CCC[C@](CF)(C2)O1 [Example 336, (17R)-9-chloro-30-fluoro-17-(fluoromethyl)-24-(((2R,7aS)-2-fluorotetrahydro-1H-pyrrolo[1,2-a]pyrrol-7a(5H)-yl)methoxy)-14,16-dioxa-5,6,21,23,25,29-hexaazahexacyclo[24.3.1.1~17,21~.0~2,10~.0~3,7~.0~22,27~]hentriaconta-1(30),2,4,7,9,22,24,26,28-nonaen-15-one] | 3 | 3 | 12 | 31 | 49 | 
